From patent EP3390415B1, “(R)- AND (S)-1-(3-(3-N,N-DIMETHYLAMINOCARBONYL)PHENOXYL-4-NITROPHENYL)-1-ETHYL-N,N'-BIS (ETHYLENE)PHOSPHORAMIDATE, COMPOSITIONS AND METHODS FOR THEIR USE AND PREPARATION” (OBI PHARMA, INC., priority 2015, dated 2017)

Experiments:
KYSE 70 = experiment: In vitro human tumor cell line cytotoxicity assay; type: cell-based; conditions: read-out: RelIC50
TF-1 = experiment: In vitro human tumor cell line cytotoxicity assay; type: cell-based; conditions: read-out: RelIC50
TE-9 = experiment: In vitro human tumor cell line cytotoxicity assay; type: cell-based; conditions: read-out: RelIC50
[1] = Body weight and toxicity in the orthotopic liver cancer mouse model; type: in vivo, athymic nude mice; conditions: intra-peritoneal, low or high dose (2.5 and 5 mg/kg)
H460 cells = experiment: In vitro proliferation assay, H460; type: cell-based; conditions: Homo sapiens, NCI-H460; 2 hrs exposure, wash, additional 70hrs, AlamarBlue; read-out: IC 50 in proliferation assay in H460 cells
Procedure: In vitro proliferation data on the H460 […] human tumor cell line is reported above in the compound table. IC50 values are reported in micromolar and result from exposure of compound at various concentrations for 2 hrs followed by a wash step and addition of fresh media followed by growth and cell viability staining and comparison to a media only treated control.
Specifically, exponentially growing cells were seeded at a density of 4 x 10^3 cells per well in a 96 well plate and incubated at 37°C in 5% CO2, 95% air and 100% relative humidity for 24 hours prior to addition of test compounds. Compounds were solubilized in 100% DMSO at 200 times the desired final test concentration. At the time of drug addition, compounds were further diluted to 4 times the desired final concentration with complete medium. Aliquots of 50 µl of compound at specified concentrations were added to microtiter wells already containing 150 µl of medium, resulting in the final drug concentration reported. After drug addition, the plates were incubated for an additional 2 hours at 37°C, 5% CO2, 95% air, and 100% relative humidity, then the drug was washed off and fresh medium was added and the plates were incubated for addition 70hrs at 37 °C, 5% CO2, 95% air and 100% relative humidity. At the end of this incubation, the viable cells were quantified using the AlamarBlue assay. The drug concentration resulting in growth inhibition of 50% (IC50) was calculated using Prism software (Irvine, CA), and the results were listed in the table.

MOLT-4 = experiment: In vitro human tumor cell line cytotoxicity assay; type: cell-based; conditions: read-out: RelIC50
KYSE = experiment: In vitro human tumor cell line cytotoxicity assay; type: cell-based; conditions: read-out: RelIC50
ECa-109 = experiment: In vitro human tumor cell line cytotoxicity assay; type: cell-based; conditions: read-out: RelIC50

Compound `C[C@H](OP(=O)(N1CC1)N1CC1)c1ccc([N+](=O)[O-])c(Oc2cccc(C(=O)N(C)C)c2)c1` (single isomer, unassigned) [TH3424] has an IC50 (KYSE 70) of 33 nM, an IC50 (TF-1) of 28 nM and an IC50 (TE-9) of 11 nM. For the same compound, the “toxicity to the experimental mice” value [1] was “no obvious toxicity”, the “toxicity to the experimental mice” value ([1]; listed as TH2870-2) was “no obvious acute toxicity” and the IC50 (H460 cells) was 4 nM. It also gave an IC50 (MOLT-4) of 10 nM, an IC50 (KYSE) of 11 nM and an IC50 (ECa-109) of 17 nM.
